Experimental data: patent publication US9695155B2, “Herbicidal substituted pyrimidinyloxy benzene compounds” (E. I. DU PONT DE NEMOURS AND COMPANY, priority 2013, dated 2017)

Tests used:
Experiment in all cases: Test E postemergence
[1] = tested on: corn; type: in vivo, Zea mays
Excerpt: (§1) Seeds of plant species selected from corn (Zea mays), soybean (Glycine max), velvetleaf (Abutilon theophrasti), lambsquarters (Chenopodium album), wild poinsettia (Euphorbia heterophylla), palmer pigweed (Amaranthus palmeri), waterhemp (common waterhemp, Amaranthus rudis), surinam grass (Brachiaria decumbens), large (Lg) crabgrass (Digitaria sanguinalis), Brazilian crabgrass (Digitaria horizontalis), fall panicum (Panicum dichotomiflorum), giant foxtail (Setaria faberii), green foxtail (Setaria viridis), goosegrass (Eleusine indica), johnsongrass (Sorghum halepense), ragweed (common ragweed, Ambrosia elatior), barnyardgrass (Echinochloa crus-galli), sandbur (southern sandbur, Cenchrus echinatus), arrowleaf sida (Sida rhombifolia), Italian ryegrass (Lolium multiflorum), dayflower (Virginia (VA) dayflower, Commelina virginica), field bindweed (Convolvulus arvensis), morningglory (Ipomoea coccinea), nightshade (eastern black nightshade, Solanum ptycanthum), kochia (Kochia scoparia), yellow nutsedge (Cyperus esculentus), cocklebur (common cocklebur, Xanthium strumarium), smartweed (ladysthumb smartweed, and hairy beggarticks (Bidens pilosa), were planted into a silt loam soil and treated preemergence with test chemicals formulated in a non-phytotoxic solvent mixture which included a surfactant.
(§2) At the same time, plants from these crop and weed species and also horseweed (Canada horseweed, Conyza canadensis), waterhemp_RES1, (ALS & Triazine resistant common waterhemp, Amaranthus rudis), and waterhemp_RES2, (ALS & HPPD resistant common waterhemp, Amaranthus rudis) were planted in pots containing Redi-Earth® planting medium (Scotts Company, 14111 Scottslawn Road, Marysville, Ohio 43041) comprising spaghnum peat moss, vermiculite, wetting agent and starter nutrients were treated with postemergence applications of test chemicals formulated in the same manner. Plants ranged in height from 2 to 18 cm for postemergence treatments (1- to 4-leaf stage). Treated plants and controls were maintained in a greenhouse for 14 to 21 days, after which time all species were compared to controls and visually evaluated. Plant response ratings, summarized in Table E, are based on a scale of 0 to 100 where 0 is no effect and 100 is complete control. A dash (-) response means no test result.

[2] = tested on: hairy beggarticks; type: in vivo, Bidens pilosa
Excerpt: as §1, §2

[3] = tested on: Brazilian crabgrass; type: in vivo, Digitaria horizontalis
Excerpt: as §1, §2

[4] = Postemergence, 31 g ai/ha, scale 0 to 100
[5] = Postemergence, 62 g ai/ha, scale 0 to 100
[6] = Postemergence, 125 g ai/ha, scale 0 to 100
[7] = Postemergence, 250 g ai/ha, scale 0 to 100
[8] = postemergence, 16 g ai/ha, scale 0 to 100, 0 no effect, 100 complete control
[9] = postemergence, 8 g ai/ha, scale 0 to 100, 0 no effect, 100 complete control

| Compound | Plant response rating, Corn [1, 4] | Plant response rating, Corn [1, 5] | Plant response rating, Corn [1, 6] | Plant response rating, Corn [1, 8] | Plant response rating, Beggarticks [2, 4] | Plant response rating, Beggarticks [2, 5] | Plant response rating, Beggarticks [2, 6] | Plant response rating, Beggarticks [2, 8] | Plant response rating, Crabgrass, Brazil [3, 4] | Plant response rating, Crabgrass, Brazil [3, 5] | Plant response rating, Crabgrass, Brazil [3, 6] | Plant response rating, Crabgrass, Brazil [3, 8] | also measured |
| --- | --- | --- | --- | --- | --- | --- | --- | --- | --- | --- | --- | --- | --- |
| Fc1cnc(Oc2ccccc2-n2cc(Br)cn2)nc1 [Compound 10, 2-[2-(4-bromo-1H-pyrazol-1-yl)phenoxy]-5-fluoropyrimidine] |  |  |  |  |  |  |  |  |  |  |  |  | corn plant response (injury) rating, 0-100 at 31 g/ha ([1]; Zea mays, post-emergence, Postemergence, 31 g ai/ha, scale 0 to 100): 0%; corn plant response (injury) rating, 0-100 at 62 g/ha ([1]; Zea mays, post-emergence, Postemergence, 62 g ai/ha, scale 0 to 100): 0%; corn plant response (injury) rating, 0-100 at 125 g/ha ([1]; Zea mays, post-emergence, Postemergence, 125 g ai/ha, scale 0 to 100): 0%; corn plant response (injury) rating, 0-100 at 250 g/ha ([1]; Zea mays, post-emergence, Postemergence, 250 g ai/ha, scale 0 to 100): 0%; corn plant response (injury) rating, 0-100 at 16 g/ha ([1]; Zea mays, post-emergence, postemergence, 16 g ai/ha, scale 0 to 100, 0 no effect, 100 complete control): 0%; pest or weed control at 31 g/ha ([2]; Bidens pilosa, post-emergence, Postemergence, 31 g ai/ha, scale 0 to 100, read-out: Plant response rating, Beggarticks): 30%; pest or weed control at 62 g/ha ([2]; Bidens pilosa, post-emergence, Postemergence, 62 g ai/ha, scale 0 to 100, read-out: Plant response rating, Beggarticks): 40%; pest or weed control at 125 g/ha ([2]; Bidens pilosa, post-emergence, Postemergence, 125 g ai/ha, scale 0 to 100, read-out: Plant response rating, Beggarticks): 50%; pest or weed control at 250 g/ha ([2]; Bidens pilosa, post-emergence, Postemergence, 250 g ai/ha, scale 0 to 100, read-out: Plant response rating, Beggarticks): 80%; pest or weed control at 16 g/ha ([2]; Bidens pilosa, post-emergence, postemergence, 16 g ai/ha, scale 0 to 100, 0 no effect, 100 complete control, read-out: Plant response rating, Beggarticks): 10%; pest or weed control at 31 g/ha ([3]; Digitaria horizontalis, post-emergence, Postemergence, 31 g ai/ha, scale 0 to 100, read-out: Plant response rating, Crabgrass, Brazil): 0%; pest or weed control at 62 g/ha ([3]; Digitaria horizontalis, post-emergence, Postemergence, 62 g ai/ha, scale 0 to 100, read-out: Plant response rating, Crabgrass, Brazil): 0%; pest or weed control at 125 g/ha ([3]; Digitaria horizontalis, post-emergence, Postemergence, 125 g ai/ha, scale 0 to 100, read-out: Plant response rating, Crabgrass, Brazil): 0%; pest or weed control at 250 g/ha ([3]; Digitaria horizontalis, post-emergence, Postemergence, 250 g ai/ha, scale 0 to 100, read-out: Plant response rating, Crabgrass, Brazil): 5%; pest or weed control at 16 g/ha ([3]; Digitaria horizontalis, post-emergence, postemergence, 16 g ai/ha, scale 0 to 100, 0 no effect, 100 complete control, read-out: Plant response rating, Crabgrass, Brazil): 0% |
| FC(F)(F)c1cnn(-c2ccccc2Oc2ncc(Cl)cn2)c1 [Compound 16] | 0 | 0 | 10 | 0 | 30 | 50 | 50 | 30 | 0 | 10 | 30 | 0 | Plant response rating, Corn [1, 7]: 15; Plant response rating, Beggarticks [2, 7]: 60; Plant response rating, Crabgrass, Brazil [3, 7]: 40 |
| Clc1cnc(Oc2cccc(Br)c2-n2cc(Br)cn2)nc1 [Compound 65] | 10 | 10 | 10 | 0 | 40 | 50 | 50 | 35 | 10 | 10 | 15 | 0 | Plant response rating, Corn [1, 9]: 0; Plant response rating, Beggarticks [2, 9]: 20; Plant response rating, Crabgrass, Brazil [3, 9]: 0 |
